Data taken from PubChem BioAssay AID256 (DTP/NCI, 2004).
“And” between values parts separate entries of the source, which are not always exact repeats. Identical values can stand only once. Inconclusive results and toxic doses are left out. Rule for the calls: active = survival T/C of 150% or more; inactive = T/C below 125% in these data. Non-standard residues stand in square brackets, D forms with d. Residues, ends and D or L forms follow the SMILES beside them. ξ: configuration not given here. *: point of attachment. Hexanoyl = CCCCCC(=O)*; ξP = O=C(O)C1CCCN1; Ava = NCCCCC(=O)O

System: CD2F1 mice, L1210 leukemia ip, survival T/C
Assay: NCI In Vivo Anticancer Drug Screen. Data for tumor model L1210 Leukemia (intraperitoneal) in CD2F1 (CDF1) mice
Conditions: higher = longer survival
In short: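 Mice carrying a transplanted tumor received test compound or vehicle alone. The value is the measurement in the treated group divided by that in the vehicle-treated control group.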

[1] = endpoint: mean survival time, dose: 100.0 mg/kg/injection, schedule: Q01DX009 (ip), vehicle: saline with Tween-80
[2] = endpoint: mean survival time, dose: 200.0 mg/kg/injection, schedule: Q01DX009 (ip), vehicle: saline with Tween-80
[3] = endpoint: mean survival time, dose: 400.0 mg/kg/injection, schedule: Q01DX009 (ip), vehicle: saline with Tween-80
[4] = endpoint: mean survival time, dose: 50.0 mg/kg/injection, schedule: Q01DX009 (ip), vehicle: Klucel (hydroxypropylcellulose) (HPC)
[5] = endpoint: mean survival time, dose: 100.0 mg/kg/injection, schedule: Q01DX009 (ip), vehicle: Klucel (hydroxypropylcellulose) (HPC)
[6] = endpoint: mean survival time, dose: 200.0 mg/kg/injection, schedule: Q01DX009 (ip), vehicle: Klucel (hydroxypropylcellulose) (HPC)
[7] = endpoint: mean survival time, dose: 100.0 mg/kg/injection, schedule: Q01DX001 (ip), vehicle: saline
[8] = endpoint: mean survival time, dose: 200.0 mg/kg/injection, schedule: Q01DX001 (ip), vehicle: saline
[9] = endpoint: mean survival time, dose: 400.0 mg/kg/injection, schedule: Q01DX001 (ip), vehicle: saline
[10] = endpoint: mean survival time, dose: 100.0 mg/kg/injection, schedule: Q04DX003 (ip), vehicle: saline
[11] = endpoint: mean survival time, dose: 200.0 mg/kg/injection, schedule: Q04DX003 (ip), vehicle: saline
[12] = endpoint: mean survival time, dose: 400.0 mg/kg/injection, schedule: Q04DX003 (ip), vehicle: saline
[13] = endpoint: mean survival time, dose: 100.0 mg/kg/injection, schedule: Q04DX003 (ip), vehicle: saline with Tween-80
[14] = endpoint: mean survival time, dose: 200.0 mg/kg/injection, schedule: Q04DX003 (ip), vehicle: saline with Tween-80

Measured: T/C

N#Cc1cccc(/C=C/c2ccc(S(=O)(=O)F)cc2)c1
inactive: endpoint: mean survival time, dose: 100.0 mg/kg/injection, schedule: Q01DX001 (ip), vehicle: other 95 % of control and 102 % of control | endpoint: mean survival time, dose: 100.0 mg/kg/injection, schedule: Q04DX002 (ip), vehicle: other 92 % of control and 98 % of control | endpoint: mean survival time, dose: 100.0 mg/kg/injection, schedule: Q04DX003 (ip), vehicle: other 100 % of control and 111 % of control | endpoint: mean survival time, dose: 200.0 mg/kg/injection, schedule: Q01DX001 (ip), vehicle: other 88 % of control and 102 % of control | endpoint: mean survival time, dose: 200.0 mg/kg/injection, schedule: Q04DX002 (ip), vehicle: other 101 % of control and 107 % of control | endpoint: mean survival time, dose: 200.0 mg/kg/injection, schedule: Q04DX003 (ip), vehicle: other 99 % of control and 105 % of control | endpoint: mean survival time, dose: 400.0 mg/kg/injection, schedule: Q01DX001 (ip), vehicle: other 92 % of control and 103 % of control | endpoint: mean survival time, dose: 400.0 mg/kg/injection, schedule: Q04DX002 (ip), vehicle: other 93 % of control and 107 % of control

C=C1C(=O)O[C@@H]2[C@H]1CC[C@H](C)[C@]1(O)CCC(=O)[C@@]21C
inactive: [1] 98 % of control | [2] 101 % of control | [3] 110 % of control

CNC(=O)NCc1ccc(C(=O)NC(C)C)cc1
inactive: endpoint: mean survival time, dose: 50.0 mg/kg/injection, schedule: Q01DX009 (ip), vehicle: other 100 % of control | endpoint: mean survival time, dose: 100.0 mg/kg/injection, schedule: Q01DX009 (ip), vehicle: other 101 % of control | endpoint: mean survival time, dose: 200.0 mg/kg/injection, schedule: Q01DX009 (ip), vehicle: other 100 % of control | endpoint: mean survival time, dose: 400.0 mg/kg/injection, schedule: Q01DX009 (ip), vehicle: other 89 % of control

CC1(C)CC(C)(OC(=O)c2ccccc2)[N+]([O-])=N1 (stereo not given)
inactive: endpoint: mean survival time, dose: 25.0 mg/kg/injection, schedule: Q01DX009 (ip), vehicle: Klucel (hydroxypropylcellulose) (HPC) 100 % of control | [4] 98 % of control | [5] 98 % of control | [6] 95 % of control | endpoint: mean survival time, dose: 400.0 mg/kg/injection, schedule: Q01DX009 (ip), vehicle: Klucel (hydroxypropylcellulose) (HPC) 98 % of control

C[P+]1(c2ccccc2)c2ccccc2Oc2ccccc21
inactive: endpoint: mean survival time, dose: 75.0 mg/kg/injection, schedule: Q01DX001 (ip), vehicle: saline 102 % of control

c1ccc(C(OOC(c2ccccc2)(c2ccccc2)c2ccccc2)(c2ccccc2)c2ccccc2)cc1
inactive: endpoint: mean survival time, dose: 50.0 mg/kg/injection, schedule: Q01DX009 (ip), vehicle: saline with Tween-80 90 % of control | [1] 90 % of control | [2] 90 % of control

O=C(O)c1cccc2ccc(Br)cc12
inactive: endpoint: median survival time, dose: 50.0 mg/kg/injection, schedule: Q04DX002 (ip), vehicle: saline with Tween-80 100 % of control | endpoint: median survival time, dose: 100.0 mg/kg/injection, schedule: Q04DX002 (ip), vehicle: saline with Tween-80 100 % of control | endpoint: median survival time, dose: 200.0 mg/kg/injection, schedule: Q04DX002 (ip), vehicle: saline with Tween-80 111 % of control

CCN(CC)c1ccc(N=Cc2cc(=O)n(C)c3ccccc23)cc1
inactive: endpoint: mean survival time, dose: 100.0 mg/kg/injection, schedule: Q01DX001 (ip), vehicle: saline with Tween-80 102 % of control | endpoint: mean survival time, dose: 400.0 mg/kg/injection, schedule: Q01DX001 (ip), vehicle: saline with Tween-80 91 % of control

CN(C)c1ncnc2c1ncn2-c1cccc(-n2cnc3c(N(C)C)ncnc32)c1
inactive: endpoint: mean survival time, dose: 1.25 mg/kg/injection, schedule: Q01DX005 (ip), vehicle: other 103 % of control | endpoint: mean survival time, dose: 2.5 mg/kg/injection, schedule: Q01DX005 (ip), vehicle: other 88 % of control | endpoint: mean survival time, dose: 5.0 mg/kg/injection, schedule: Q01DX005 (ip), vehicle: other 92 % of control | endpoint: mean survival time, dose: 10.0 mg/kg/injection, schedule: Q01DX005 (ip), vehicle: other 92 % of control | endpoint: mean survival time, dose: 20.0 mg/kg/injection, schedule: Q01DX005 (ip), vehicle: other 88 % of control

CC1OC1C(=O)C1(O)C(C)C(O)C23OC2(C(O)c2c(O)cccc2C3=O)C1O (stereo not given)
inactive: endpoint: mean survival time, dose: 0.5 mg/kg/injection, schedule: Q01DX009 (ip), vehicle: Klucel (hydroxypropylcellulose) (HPC) 98 % of control and 101 % of control | endpoint: mean survival time, dose: 1.0 mg/kg/injection, schedule: Q01DX009 (ip), vehicle: Klucel (hydroxypropylcellulose) (HPC) 98 % of control and 102 % of control (2×) | endpoint: mean survival time, dose: 2.0 mg/kg/injection, schedule: Q01DX009 (ip), vehicle: Klucel (hydroxypropylcellulose) (HPC) 104 % of control and 105 % of control and 107 % of control | endpoint: mean survival time, dose: 4.0 mg/kg/injection, schedule: Q01DX009 (ip), vehicle: Klucel (hydroxypropylcellulose) (HPC) 114 % of control and 102 % of control and 103 % of control | endpoint: mean survival time, dose: 8.0 mg/kg/injection, schedule: Q01DX009 (ip), vehicle: Klucel (hydroxypropylcellulose) (HPC) 120 % of control and 104 % of control and 109 % of control | endpoint: mean survival time, dose: 16.0 mg/kg/injection, schedule: Q01DX009 (ip), vehicle: Klucel (hydroxypropylcellulose) (HPC) 104 % of control

Nc1nc(=S)c2n[nH]nc2[nH]1
inactive: endpoint: mean survival time, dose: 25.0 mg/kg/injection, schedule: Q01DX001 (ip), vehicle: saline with Tween-80 102 % of control | endpoint: mean survival time, dose: 50.0 mg/kg/injection, schedule: Q01DX001 (ip), vehicle: saline with Tween-80 104 % of control

O=C1C2C3C=CC(O3)C2C(=O)N1Cc1ccncc1 (stereo not given)
inactive: [7] 108 % of control | [8] 100 % of control | [9] 101 % of control

C=CCC(C(=O)O)(c1ccccc1)c1ccccc1
inactive: [4] 95 % of control | [5] 98 % of control | [6] 98 % of control

CCCCCC(=O)NCC(=O)N1CCCC1C(=O)NCCCCC(=O)OC (stereo not given) (Hexanoyl-Gly-[ξP]-[Ava]-OMe)
inactive: [10] 98 % of control | [11] 107 % of control | [12] 103 % of control

[C-]#[O+].[Cl][Sn]([Cl])[Cl].[Cl][Sn]([Cl])[Cl].[Pt].c1ccncc1
inactive: endpoint: median survival time, dose: 3.12 mg/kg/injection, schedule: Q04DX003 (ip), vehicle: saline with Tween-80 113 % of control | endpoint: median survival time, dose: 6.25 mg/kg/injection, schedule: Q04DX003 (ip), vehicle: saline with Tween-80 110 % of control | endpoint: median survival time, dose: 12.5 mg/kg/injection, schedule: Q04DX003 (ip), vehicle: saline with Tween-80 110 % of control | endpoint: median survival time, dose: 25.0 mg/kg/injection, schedule: Q04DX003 (ip), vehicle: saline with Tween-80 102 % of control | endpoint: median survival time, dose: 50.0 mg/kg/injection, schedule: Q04DX003 (ip), vehicle: saline with Tween-80 108 % of control | endpoint: median survival time, dose: 100.0 mg/kg/injection, schedule: Q04DX003 (ip), vehicle: saline with Tween-80 108 % of control | endpoint: median survival time, dose: 200.0 mg/kg/injection, schedule: Q04DX003 (ip), vehicle: saline with Tween-80 120 % of control

O=CNC(CSSCC(NC=O)C(=O)O)C(=O)O (stereo not given)
inactive: [1] 100 % of control | [2] 97 % of control | [3] 94 % of control

Cc1ccc([N+](=O)[O-])cc1NC(=O)NNC(=O)CNC(=O)NCc1ccco1
inactive: [1] 91 % of control | [2] 89 % of control | [3] 97 % of control

CC(C)=CC(C)=Nc1ccccc1
inactive: [7] 90 % of control | [10] 102 % of control | [8] 96 % of control | [11] 96 % of control | [9] 98 % of control | [12] 104 % of control

CC1=Nc2cc(Cl)c(Cl)cc2N(C)/C1=C/C1=C(Cl)C(=O)c2cc3c(Cl)ccc(Cl)c3cc2C1=O
inactive: [13] 94 % of control | [14] 97 % of control

CC(Nc1ccccc1C(=O)O)C(=O)O (stereo not given)
inactive: [13] 102 % of control | [14] 104 % of control | endpoint: mean survival time, dose: 400.0 mg/kg/injection, schedule: Q04DX003 (ip), vehicle: saline with Tween-80 104 % of control

Nc1ccc(N=Nc2ccccc2)c(N)c1
inactive: [10] 97 % of control | [11] 90 % of control | [12] 100 % of control

CCCCN1CCNCC1
inactive: [10] 93 % of control | [11] 94 % of control
